Where “and” joins values, the source holds several entries; their conditions need not be identical. Equal entries are not always repeated. Inconclusive results and toxic doses are left out.

The subject of the assay is L1210 leukemia ip in BDF1 mice, survival T/C. Kind of assay: NCI In Vivo Anticancer Drug Screen. Data for tumor model L1210 Leukemia (intraperitoneal) in B6D2F1 (BDF1) mice. The note with it: endpoint: mean survival time, higher = longer survival. The method in brief: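 Survival endpoint. Drug-treated group vs vehicle group, expressed as T divided by C. Tumor passaged by transplantation.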

Where [1] appears, read: dose: 50.0 mg/kg/injection, schedule: Q01DX001 (ip), vehicle: saline.
[2] abbreviates: dose: 100.0 mg/kg/injection, schedule: Q01DX001 (ip), vehicle: saline.
[3] abbreviates: dose: 200.0 mg/kg/injection, schedule: Q01DX001 (ip), vehicle: saline.
[4] abbreviates: dose: 100.0 mg/kg/injection, schedule: Q01DX009 (ip), vehicle: Klucel (hydroxypropylcellulose) (HPC).
[5] abbreviates: dose: 200.0 mg/kg/injection, schedule: Q01DX009 (ip), vehicle: Klucel (hydroxypropylcellulose) (HPC).
Where [6] appears, read: dose: 400.0 mg/kg/injection, schedule: Q01DX009 (ip), vehicle: Klucel (hydroxypropylcellulose) (HPC).

As to `CC(C)C(=O)CC(=O)C(C)C.CC(C)C(=O)CC(=O)C(C)C.[Cu]`, the T/C was 93 % of control (dose: 12.0 mg/kg/injection, schedule: Q01DX001 (ip), vehicle: saline); 90 % of control (dose: 12.0 mg/kg/injection, schedule: Q04DX003 (ip), vehicle: saline); 98 % of control (dose: 25.0 mg/kg/injection, schedule: Q01DX001 (ip), vehicle: saline); 98 % of control (dose: 25.0 mg/kg/injection, schedule: Q04DX003 (ip), vehicle: saline); 98 % of control under setting [1]; 96 % of control (dose: 50.0 mg/kg/injection, schedule: Q04DX003 (ip), vehicle: saline).
As to `Cn1cnc([N+](=O)[O-])c1Sc1nc(N)nc2c1ncn2C1OC(CO)C(O)C1O` (stereo unspecified), the T/C was 121 % of control (dose: 0.94 mg/kg/injection, schedule: Q01DX Z (ip), vehicle: methylcellulose (MC)); 121 % of control (dose: 1.88 mg/kg/injection, schedule: Q01DX Z (ip), vehicle: methylcellulose (MC)); 116 % of control (dose: 3.75 mg/kg/injection, schedule: Q01DX Z (ip), vehicle: methylcellulose (MC)); 116 % of control (dose: 7.5 mg/kg/injection, schedule: Q01DX Z (ip), vehicle: methylcellulose (MC)); 103 % of control (dose: 15.0 mg/kg/injection, schedule: Q01DX Z (ip), vehicle: methylcellulose (MC)).
In the case of `CSc1nc(C)c(C)[n+](C)n1`, the T/C was 115 % of control (dose: 75.0 mg/kg/injection, schedule: Q01DX001 (ip), vehicle: saline with Tween-80) and 117 % of control (dose: 150.0 mg/kg/injection, schedule: Q01DX001 (ip), vehicle: saline with Tween-80).
In the case of `CNC(=O)Oc1c([N+](=O)[O-])c([N+](=O)[O-])cc2ccccc12`, the T/C (dose: 75.0 mg/kg/injection, schedule: Q01DX001 (ip), vehicle: other) is 100 % of control.
Take `S=P1(Oc2ccccc2)Nc2ccccc2N1c1ccccc1` (stereo unspecified): the T/C by setting is: (dose: 100.0 mg/kg/injection, schedule: Q04DX002 (ip), vehicle: saline with Tween-80) 92 % of control; (dose: 200.0 mg/kg/injection, schedule: Q04DX002 (ip), vehicle: saline with Tween-80) 98 % of control; (dose: 400.0 mg/kg/injection, schedule: Q04DX002 (ip), vehicle: saline with Tween-80) 95 % of control.
Turning to `CCCOC(=O)C(OC(=O)c1ccccc1)C(OC(=O)c1ccccc1)C(=O)OCCC` (stereo unspecified), the T/C by setting is: under setting [2], 104 % of control; under setting [3], 96 % of control; (dose: 400.0 mg/kg/injection, schedule: Q01DX001 (ip), vehicle: saline) 94 % of control.
For the compound `CC1(C)N=C(N)N=C(N)N1c1ccc(CC(=O)Nc2cccc(S(=O)(=O)F)c2)cc1`, the T/C is 105 % of control (dose: 6.25 mg/kg/injection, schedule: Q#A X018 (ip), vehicle: saline); 103 % of control (dose: 12.5 mg/kg/injection, schedule: Q01DX009 (ip), vehicle: saline); 111 % of control (dose: 12.5 mg/kg/injection, schedule: Q#A X018 (ip), vehicle: saline); 111 % of control (dose: 25.0 mg/kg/injection, schedule: Q01DX009 (ip), vehicle: saline); 117 % of control and 118 % of control (dose: 50.0 mg/kg/injection, schedule: Q01DX009 (ip), vehicle: saline); 118 % of control (dose: 50.0 mg/kg/injection, schedule: Q#A X018 (ip), vehicle: saline). The T/C by setting is: under setting [2], 100 % of control; under setting [3], 102 % of control.
As for `Cc1ccccc1SSc1ccccc1C`, the T/C is, setting by setting: (dose: 100.0 mg/kg/injection, schedule: Q04DX003 (ip), vehicle: Klucel (hydroxypropylcellulose) (HPC)) 94 % of control; (dose: 200.0 mg/kg/injection, schedule: Q04DX003 (ip), vehicle: Klucel (hydroxypropylcellulose) (HPC)) 97 % of control; (dose: 400.0 mg/kg/injection, schedule: Q04DX003 (ip), vehicle: Klucel (hydroxypropylcellulose) (HPC)) 91 % of control.
Regarding `Cc1cc([N+](=O)[O-])c(NC2CCCCC2)c([N+](=O)[O-])c1`, the T/C runs as follows: (dose: 100.0 mg/kg/injection, schedule: Q04DX002 (ip), vehicle: Klucel (hydroxypropylcellulose) (HPC)) 100 % of control; (dose: 200.0 mg/kg/injection, schedule: Q04DX002 (ip), vehicle: Klucel (hydroxypropylcellulose) (HPC)) 93 % of control; (dose: 400.0 mg/kg/injection, schedule: Q04DX002 (ip), vehicle: Klucel (hydroxypropylcellulose) (HPC)) 96 % of control.
In the case of `CCOC(=O)c1ccc(NC(=S)N2CCOCC2)cc1`, the T/C runs as follows: under setting [4], 93 % of control; under setting [5], 101 % of control; under setting [6], 93 % of control.
In the case of `C=CCc1cnc(C(F)(F)F)[nH]c1=O`, the T/C reads like this: (dose: 25.0 mg/kg/injection, schedule: Q01DX001 (ip), vehicle: Klucel (hydroxypropylcellulose) (HPC)) 93 % of control; (dose: 50.0 mg/kg/injection, schedule: Q01DX001 (ip), vehicle: Klucel (hydroxypropylcellulose) (HPC)) 94 % of control; (dose: 100.0 mg/kg/injection, schedule: Q01DX001 (ip), vehicle: Klucel (hydroxypropylcellulose) (HPC)) 94 % of control.
`ON(C(=Nc1ccccc1)c1ccccc1)c1ccccc1`: the T/C by setting is: under setting [1], 102 % of control; under setting [2], 101 % of control.
As for `O=C1NCCc2c1sc1ccccc21`, the T/C is, setting by setting: (dose: 100.0 mg/kg/injection, schedule: Q01DX001 (ip), vehicle: carboxymethylcellulose (CMC)) 95 % of control; (dose: 400.0 mg/kg/injection, schedule: Q01DX001 (ip), vehicle: carboxymethylcellulose (CMC)) 90 % of control.
Turning to `O=C1OCCC1C(=O)C(O)(C(F)(F)F)C(F)(F)F` (stereo unspecified), the T/C (dose: 100.0 mg/kg/injection, schedule: Q01DX009 (ip), vehicle: other) was 96 % of control; the T/C (dose: 200.0 mg/kg/injection, schedule: Q01DX009 (ip), vehicle: other) is 100 % of control; the T/C (dose: 400.0 mg/kg/injection, schedule: Q01DX009 (ip), vehicle: other) is 94 % of control.
Regarding `C#CC(C)(O)c1ccccc1` (stereo unspecified), the T/C by setting is: under setting [4], 98 % of control; under setting [5], 98 % of control.
In the case of `CCCCN(C)/N=N\c1[nH]ncc1C(N)=O`, the T/C reads like this: (dose: 8.5 mg/kg/injection, schedule: Q01DX009 (ip), vehicle: saline with Tween-80) 119 % of control; (dose: 13.0 mg/kg/injection, schedule: Q01DX009 (ip), vehicle: saline with Tween-80) 104 % of control; (dose: 16.25 mg/kg/injection, schedule: Q01DX009 (ip), vehicle: saline with Tween-80) 115 % of control; (dose: 20.0 mg/kg/injection, schedule: Q01DX009 (ip), vehicle: saline with Tween-80) 115 % of control; (dose: 30.5 mg/kg/injection, schedule: Q04DX003 (ip), vehicle: saline with Tween-80) 100 % of control; (dose: 44.0 mg/kg/injection, schedule: Q01DX009 (ip), vehicle: other) 165 % of control. For the same compound, the T/C is, setting by setting: (dose: 61.0 mg/kg/injection, schedule: Q04DX003 (ip), vehicle: saline with Tween-80) 108 % of control; (dose: 65.0 mg/kg/injection, schedule: Q01DX009 (ip), vehicle: saline with Tween-80) 157 % of control; (dose: 66.0 mg/kg/injection, schedule: Q01DX009 (ip), vehicle: other) 184 % of control; (dose: 77.25 mg/kg/injection, schedule: Q01DX001 (ip), vehicle: saline with Tween-80) 106 % of control; (dose: 122.0 mg/kg/injection, schedule: Q04DX003 (ip), vehicle: saline with Tween-80) 119 % of control; (dose: 150.0 mg/kg/injection, schedule: Q01DX009 (ip), vehicle: other) 114 % of control. Moreover, the T/C is, setting by setting: (dose: 154.5 mg/kg/injection, schedule: Q01DX001 (ip), vehicle: saline with Tween-80) 117 % of control; (dose: 309.0 mg/kg/injection, schedule: Q01DX001 (ip), vehicle: saline with Tween-80) 114 % of control.
With `CN(C)c1ccc(C=Nc2ccc(S(N)(=O)=O)cc2)cc1`, the T/C under setting [4] was 100 % of control, the T/C under setting [5] was 93 % of control and the T/C under setting [6] is 98 % of control.
With `CC1CC(C)(C)N=C(c2cccc(Br)c2)O1` (stereo unspecified), the T/C was 103 % of control (dose: 100.0 mg/kg/injection, schedule: Q01DX009 (ip), vehicle: saline with Tween-80); 103 % of control (dose: 200.0 mg/kg/injection, schedule: Q01DX009 (ip), vehicle: saline with Tween-80); 92 % of control (dose: 400.0 mg/kg/injection, schedule: Q01DX009 (ip), vehicle: saline with Tween-80).
As to `ClCc1nc2ccc(Cl)cc2[nH]1`, the T/C (dose: 100.0 mg/kg/injection, schedule: Q01DX001 (ip), vehicle: other) was 104 % of control and the T/C (dose: 200.0 mg/kg/injection, schedule: Q01DX001 (ip), vehicle: other) is 106 % of control.

Values taken from PubChem BioAssay AID248 (DTP/NCI, 2004).
